In article PMC2703642, “PpoR is a conserved unpaired LuxR solo of Pseudomonas putida which binds N-acyl homoserine lactones” (BMC Microbiology, 2009):

Biological target: T1, PpoR (Pseudomonas putida, UniProt Q88E21)
T1 construct: gene PP_4647; full-length, 235 aa [sic] (705 bp ORF); 721-bp fragment with entire ppoR cloned SphI-HindIII in pQE30 (pQEPpoR); expressed in E. coli M15(pRep4); not purified
Assay: AHL retention in washed E. coli cells expressing PpoR, ethyl acetate extraction, TLC with A. tumefaciens NTL4 (pZLR4) overlay
Assay type: cell-based
Conditions: 1 uM AHL in LB, 30 C, IPTG induction 3.5 h; pQE30 vector-only control

T1 sequence (Q88E21 entry or part of it): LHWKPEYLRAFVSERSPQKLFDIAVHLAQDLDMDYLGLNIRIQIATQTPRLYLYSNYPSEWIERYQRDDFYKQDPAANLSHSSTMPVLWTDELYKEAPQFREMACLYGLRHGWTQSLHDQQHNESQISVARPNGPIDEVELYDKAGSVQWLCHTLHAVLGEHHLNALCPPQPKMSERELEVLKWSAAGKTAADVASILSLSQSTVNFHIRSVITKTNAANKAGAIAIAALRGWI

Row | Structure (SMILES) | AHL retention in washed E. coli cells expressing PpoR, ethyl acetate extraction,
1 | CCCC(=O)CC(=O)N[C@H]1CCOC1=O [3-oxo-C6-HSL] | Purification of AHLs from E. coli over-expressing PpoR resulted in detection of 3-oxo-C6-HSL
2 | CCCCCC(=O)CC(=O)N[C@H]1CCOC1=O [3-oxo-C8-HSL] | PpoR also exhibited probable binding to 3-oxo-C8-HSL and 3-oxo-C10-HSL, but to a lower extent
3 | CCCCCCCC(=O)CC(=O)N[C@H]1CCOC1=O [3-oxo-C10-HSL] | PpoR also exhibited probable binding to 3-oxo-C8-HSL and 3-oxo-C10-HSL, but to a lower extent
